Measurements as given in patent US10258043B2, “Pesticide compositions and methods for controlling invertebrate pests” (Adama Makhteshim Ltd., priority 2012, dated 2019).

System: German cockroaches
Experiment: Second series of evaluations: pyriproxyfen and novaluron alone and in combination on three substrates
Assay type: in vivo
Details: preliminary results
Experimental: Ceramic tile, vinyl tile, and unpainted plywood panels measuring 6″×6″ were cleaned using soapy water to remove any residue left over from the manufacturing process and left to dry overnight. Six (6) L plastic storage boxes (Sterlite®) with lids were purchased from a local hardware store (Home Depot, Riverbank, Calif.) and cleaned as well and allowed to dry. Each substrate was treated with 0.95 mL of test material (1 gallon/1,000 ft^2 equivalent) prepared in accordance with Example 1 using a Pipetteman 1000, with the material being evenly distributed over the entire surface of the substrate using an acid brush. The material was allowed to dry and the substrates were placed into the plastic storage boxes, one per box. A 5 cm Petri dish was filled with dog food and a slice of orange for nourishment, and a water tube was added for moisture. The food dish was placed directly on the treated substrate to force exposure of the cockroaches. A 6″ rolled piece of corrugated cardboard was placed in each replicate for harborage. A thin layer of petroleum jelly/mineral oil was applied to the rim to prevent escape.
Approximately forty (40) second and third instar nymphs were placed in each replicate and the lid was placed on top. Five replicates were prepared, one for each of the four treatments set forth in Table 2 and an untreated control. […]

Compound | Molting abnormalities of mid-instar cockroaches (all three substrates) | Morphological characteristics of juvenoid activity (individuals alive in these treatment groups)
O=C(NC(=O)c1c(F)cccc1F)Nc1ccc(OC(F)(F)C(F)OC(F)(F)F)c(Cl)c1 (racemic) [novaluron, (RS)-1-[3-chloro-4-(1,1,2-trifluoro-2-trifluoromethoxyethoxy)phenyl]-3-(2,6-difluorobenzoyl)urea] | molting abnormalities | 
CC(COc1ccc(Oc2ccccc2)cc1)Oc1ccccn1 (centres unmarked) [pyriproxyfen, 4-phenoxyphenyl 2-(2-pyridyloxy)propyl ether] |  | twisted wings and darkened cuticle
